Article PMC9573605, “Exploring Nitric Oxide (NO)-Releasing Celecoxib Derivatives as Modulators of Radioresponse in Pheochromocytoma Cells” (Molecules, 2022)
Counter-ions that a name gives are not always drawn. Like-named read-outs stand apart in the source and are kept apart here.

Key:
recombinant human COX-2 [1] = target: T1, recombinant human COX-2 (Homo sapiens, UniProt P35354); test: COX Fluorescent Inhibitor Screening Assay, COX-2; assay type: biochemical; conditions: for SI: COX-1 vs COX-2 selectivity index; for IC50: human COX-2, 0.1 nM to 100 µM in duplicate
T1 construct: purchased Cayman Chemical 700100
T1 sequence (P35354 18-604): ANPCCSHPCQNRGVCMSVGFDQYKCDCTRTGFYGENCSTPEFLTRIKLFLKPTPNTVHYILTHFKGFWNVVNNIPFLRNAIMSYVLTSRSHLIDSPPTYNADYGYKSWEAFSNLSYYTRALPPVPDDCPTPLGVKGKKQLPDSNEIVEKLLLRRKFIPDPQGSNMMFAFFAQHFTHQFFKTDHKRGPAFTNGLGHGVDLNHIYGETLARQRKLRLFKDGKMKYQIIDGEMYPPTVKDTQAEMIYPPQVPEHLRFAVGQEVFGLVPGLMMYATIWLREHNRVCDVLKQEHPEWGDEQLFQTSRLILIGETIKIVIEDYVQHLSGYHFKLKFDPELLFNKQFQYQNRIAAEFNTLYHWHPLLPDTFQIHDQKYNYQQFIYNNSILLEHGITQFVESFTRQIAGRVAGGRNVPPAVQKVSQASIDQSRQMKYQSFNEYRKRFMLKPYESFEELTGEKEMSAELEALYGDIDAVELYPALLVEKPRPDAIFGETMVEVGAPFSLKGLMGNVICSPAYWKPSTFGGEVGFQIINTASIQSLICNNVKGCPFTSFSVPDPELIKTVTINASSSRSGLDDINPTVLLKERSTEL
Experimental: (§1) COX inhibition (Table 1) was evaluated in vitro using purified ovine COX-1 and recombinant human COX-2 enzyme in a commercially available “COX Fluorescent Inhibitor Screening Assay KIT” (item no. 700100, Cayman Chemical, Ann Arbor, MI, USA). Celecoxib served as a reference and inhibition data concerning 4a, 4e, 5a and 5e were previously reported by us and is herein discussed for comparison.
(§2) COX inhibition activity against ovine COX-1 and human COX-2 was determined using the fluorescence-based COX assay “COX Fluorescent Inhibitor Screening Assay Kit” (catalog number 700100; Cayman Chemical, Ann Arbor, MI, USA) according to the manufacturer’s instructions. Compounds 6a–d were screened at a concentration of 100 µM, all others were assayed in a concentration range of 0.1 nM to 100 μM in duplicate.

[2] = Lipophilicity logD7.4 by HPLC method; assay type: physicochemical; conditions: HPLC retention on ODP-50 4B column (Shodex Asahipak), phosphate buffer pH 7.4
Experimental: The lipophilicity of all synthesized compounds was determined as logD7.4, HPLC value by an HPLC method originally described by Donovan and Pescatore.
The logD7.4HPLC value was determined as previously reported by us utilizing an HPLC method originally described by Donovan and Pescatore.

purified ovine COX-1 [3] = target: T2, purified ovine COX-1 (Ovis aries, UniProt P05979); test: COX Fluorescent Inhibitor Screening Assay, COX-1; assay type: biochemical; conditions: 0.1 nM to 100 µM in duplicate
T2 construct: purchased Cayman Chemical 700100
T2 sequence (P05979 25-600): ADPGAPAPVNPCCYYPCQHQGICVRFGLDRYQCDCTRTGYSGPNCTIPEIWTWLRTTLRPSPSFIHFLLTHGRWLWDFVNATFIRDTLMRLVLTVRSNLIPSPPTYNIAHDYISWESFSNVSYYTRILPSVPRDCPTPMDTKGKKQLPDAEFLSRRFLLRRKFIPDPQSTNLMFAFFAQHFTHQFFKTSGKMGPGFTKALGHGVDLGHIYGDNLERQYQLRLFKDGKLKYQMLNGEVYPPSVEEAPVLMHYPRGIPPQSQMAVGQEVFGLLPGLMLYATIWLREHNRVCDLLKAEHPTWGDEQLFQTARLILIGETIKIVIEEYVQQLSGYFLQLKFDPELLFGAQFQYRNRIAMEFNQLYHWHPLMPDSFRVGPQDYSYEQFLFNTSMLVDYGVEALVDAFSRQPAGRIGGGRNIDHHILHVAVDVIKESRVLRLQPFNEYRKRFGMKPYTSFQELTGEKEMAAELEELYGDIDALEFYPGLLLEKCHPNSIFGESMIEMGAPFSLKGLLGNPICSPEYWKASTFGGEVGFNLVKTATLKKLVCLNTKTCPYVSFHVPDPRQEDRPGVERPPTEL
Experimental: as §1, §2

[4] = Fluorometric NO release assay (Griess assay); assay type: physicochemical; conditions: 24 h, 37 °C, relative to initial molar amount of compound; for thiol-dependent NO release: 2.5 mM cysteine; for spontaneous NO release: absence of cysteine
Experimental: The nitric oxide releasing properties of the nitroester-derivatives 5a–d, 5f, and 6a–d were evaluated using a fluorometric Griess assay in the presence and absence of cysteine to determine thiol-dependent and spontaneous release of nitric oxide (Figure 3).
Nitric oxide release of compounds within 24 h at 37 °C was measured using the fluorometric nitric oxide microplate assay kit ab65327 (Abcam, Cambridge, UK). For measurement of spontaneous release, 1.8 nmol of compounds were incubated in 75 µL Dulbecco’s PBS containing 0.05% v/v residual DMSO and 2.5 mM DTPA (pH = 7.1) for 24 h at 37 °C. Thiol-dependent release was measured accordingly in presence of 2.5 mM cysteine. Two series of nitrate standards were prepared (0.2−1 nmol) in 75 µL incubation buffer, in presence or absence of cysteine, respectively. According to the manufacturer’s instructions, all nitrate content in samples and standards was enzymatically converted into nitrite through incubation with nitrate reductase for 2 h at room temperature, and the resulting nitrite content (total nitric oxide) was determined through reaction with 2,3-diaminonaphthalene followed by measurement of fluorescence intensity at λex/em = 360/450 nm using a microplate reader. Nitrite content in samples was calculated from linear regression of standards and expressed as relative nitric oxide release (%) normalized to the initial molar amount of compound. NONOate served as positive control.
Figure 3 Spontaneous and thiol-dependent NO^• release from NO-COXIBs; measured using fluorometric Griess assay (n = 2); relative release indicates the percentage of soluble nitrogen species (nitrate + nitrite) detected in the incubation buffer after 24 h compared to the initial molar amount of compounds; NO^• release of NONOate (positive control) exceeded the maximum detection limit; data presented as mean ± range.

recombinant human COX-2 [5] = target: T1, recombinant human COX-2; parameters: method as in PMID 26081289; conditions: cited from earlier work; for SI: COX-1 vs COX-2 selectivity index, COX inhibition previously reported ref 49
purified ovine COX-1 [6] = target: T2, purified ovine COX-1; parameters: method as in PMID 26081289; conditions: previously reported ref 49; cited from earlier work
[7] = Conversion in NO-assay buffer followed by UPLC; assay type: physicochemical; conditions: after 70 h, 37 °C, presence of cysteine
Experimental: The time-dependent degradation behavior of compounds 4f, 5a–f, and 6a–d as well as celecoxib was followed by UPLC analysis over a time course of 8 days (Figure 4). For that, compounds were incubated at 37 °C in the presence or absence of cysteine in the assay buffer used for the Griess assay. Samples were withdrawn at distinct time points (1, 5, 23, 47, 70, and 191 h), diluted into a mixture of acetonitrile/water, and analyzed.
The time-dependent conversion of NO-COXIBs 5a–f and 6a–d as well as reference compounds 4f and celecoxib in the presence or absence of cysteine in assay buffer was investigated by following the degradation of intact compound and identification of selected degradation products by UPLC. For that, samples were incubated at 37 °C in the assay buffer in the presence or absence of cysteine and at the indicated time point; 5 µL assay buffer of each sample was withdrawn and diluted with 45 µL MeCN/water (50/50 v/v). The samples were thoroughly vortexed and then subjected to UPLC analysis. All samples of one time point were analyzed within a total analysis time of approximately 2.5 h. Conversion was monitored at 254 nm using the following UPLC system: column Aquity UPLC® HSS C18 column (Waters Corporation, Milford, MA, USA; 100 × 2.1 mm, 1.8 µm, 130 Å), UPLC H-Class (Waters Corporation, Milford, MA, USA): quaternary gradient pump QSM, autosampler FTN, column heater CHA, and diode array detector PDAeλ, γ detector Gabi Star (Raytest Isotopenmeßgeräte GmbH, Straubenhardt, Germany), flow rate 0.4 mL/min, eluent: (A): 0.1% acetic acid in MeCN/MeOH 1/1/(B): 0.1% acetic acid in H2O; gradient: t0min 45/55–t0.5min 45/55–t5.5min 95/5–t7.0min 95/5–t7.2min 45/55–t8.5min 45/55). For the identification of degradation products, samples taken after 24 h were additionally subjected to HPLC-HRMS analysis using HPLC system 6. In brief, the NO-COXIBs were converted to the respective hydroxymethyl-substituted compounds and in the presence of cysteine additionally to the cysteine adduct, which could be identified by the respective Δm/z shifts. A detailed comparison of calculated and found m/z-signals is given in Supplementary Material Table S1, and copies of HPLC-HRMS chromatograms and selected spectra are given in Supplementary Material Figures S56–S66.

Row | SMILES | SI (recombinant human COX-2 [1]) | IC50 (recombinant human COX-2 [1]) [nM] | chromatographic logD [2] | IC50 (purified ovine COX-1 [3]) [nM] | melting point [°C] | also measured
1 | Cc1ccc(-c2c(Cl)c(CCl)nn2-c2ccc(S(N)(=O)=O)cc2)cc1 [4a, 4-[4-Chloro-3-(chloromethyl)-5-(4-toly)-1H-pyrazol-1-yl]benzenesulfonamide] |  |  | 3.61 |  |  | SI (recombinant human COX-2 [5]): >454; IC50 (purified ovine COX-1 [6]): > 100000 nM
2 | COc1ccc(-c2c(Cl)c(CCl)nn2-c2ccc(S(N)(=O)=O)cc2)cc1 [4b, 4-[4-Chloro-3-(chloromethyl)-5-(4-methoxyphenyl)-1H-pyrazol-1-yl]benzenesulfonamide] | 2.3 | 127 | 3.53 | 297 | 238 to 240 | 
3 | COc1ccc(-c2c(Cl)c(CCl)nn2-c2ccc(S(C)(=O)=O)cc2)cc1 [4d, 4-Chloro-3-(chloromethyl)-5-(4-methoxyphenyl)-1-[4-(methylsulfonyl)phenyl]-1H-pyrazole] | >208 | 480 | 3.84 | > 100000 | 234 to 236 | 
4 | Cc1ccc(-c2cc(CCl)nn2-c2ccc(S(N)(=O)=O)cc2)cc1 [4e, 4-[3-(Chloromethyl)-5-(p-tolyl)-1H-pyrazol-1-yl]benzenesulfonamide] |  |  | 3.14 |  |  | SI (recombinant human COX-2 [5]): >78; IC50 (recombinant human COX-2 [5]; human COX-2, previously reported ref 49): 1270 nM; IC50 (purified ovine COX-1 [6]): > 100000 nM
5 | COc1ccc(-c2cc(CCl)nn2-c2ccc(S(N)(=O)=O)cc2)cc1 [4f, 4-[3-(Chloromethyl)-5-(4-methoxyphenyl)-1H-pyrazol-1-yl]benzenesulfonamide] | >270 | 370 | 3.06 | > 100000 | 169 to 172 | thiol-dependent NO release [4]: not detectable; spontaneous NO release [4]: not detectable; intact compound [7]: quantitatively consumed
6 | Cc1ccc(-c2c(Cl)c(CCl)nn2-c2ccc(S(C)(=O)=O)cc2)cc1 [4c, 4-Chloro-3-(chloromethyl)-1-[4-(methylsulfonyl)phenyl]-5-(p-tolyl)-1H-pyrazole] | >138 | 720 | 3.9 | > 100000 |  | 

More lines, main results first:

Row | SI (recombinant human COX-2 [1]) | IC50 (recombinant human COX-2 [1]) [nM] | chromatographic logD [2] | IC50 (purified ovine COX-1 [3]) [nM] | melting point [°C] | SMILES | also measured
7 | 5.9 | 434 | 3.67 | 2570 |  | COc1ccc(-c2c(Cl)c(CO[N+](=O)[O-])nn2-c2ccc(S(N)(=O)=O)cc2)cc1 [5b, [4-Chloro-5-(4-methoxyphenyl)-1-(4-sulfamoylphenyl)-1H-pyrazol-3-yl]methyl nitrate] | IC50 (COX-1) (purified ovine COX-1 [3]): considerable COX-1 inhibition potency; thiol-dependent NO release [4]: 20%; spontaneous NO release [4]: no detectable
8 |  |  |  |  | 141 to 143 | COc1ccc(-c2c(Cl)c(CO[N+](=O)[O-])nn2-c2ccc(S(C)(=O)=O)cc2)cc1 (as salt: nitrate) [5d, {4-Chloro-5-(4-methoxyphenyl)-1-[4-(methylsulfonyl)phenyl]-1H-pyrazol-3-yl}methyl nitrate] | 
9 |  |  |  |  | 113 to 115 | Cc1ccc(-c2c(Cl)c(CO[N+](=O)[O-])nn2-c2ccc(S(C)(=O)=O)cc2)cc1 (as salt: nitrate) [5c, {4-Chloro-1-[4-(methylsulfonyl)phenyl]-5-(p-tolyl)-1H-pyrazol-3-yl}methyl nitrate] | 
10 |  |  | 3.4 |  |  | Cc1ccc(-c2cc(CO[N+](=O)[O-])nn2-c2ccc(S(N)(=O)=O)cc2)cc1 [5e, [1-(4-Sulfamoylphenyl)-5-(p-tolyl)-1H-pyrazol-3-yl]methyl nitrate] | SI (recombinant human COX-2 [5]): >112; IC50 (purified ovine COX-1 [6]): > 100000 nM
11 |  |  |  |  | 173 to 174 | COc1ccc(-c2c(Cl)c(CO[N+](=O)[O-])nn2-c2ccc(S(N)(=O)=O)cc2)cc1 (as salt: nitrate) [5b, [4-Chloro-5-(4-methoxyphenyl)-1-(4-sulfamoylphenyl)-1H-pyrazol-3-yl]methyl nitrate] | 
12 |  |  |  |  | 72 to 74 | CCC(=O)NS(=O)(=O)c1ccc(-n2nc(CO[N+](=O)[O-])cc2-c2ccc(C)cc2)cc1 (as salt: nitrate) [6c, {1-[4-(N-Propionylsulfamoyl)phenyl]-5-(p-tolyl)-1H-pyrazol-3-yl}methyl nitrate] | 
